# Experimental data taken from the supplement of paper PMC11451515.
# System: P12-Ichikawa
# Test: cell viability relative to DMSO control; higher = less cytotoxic
# Conditions: 48 h
# Procedure, shortened: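 NOMO1 or SEM (500 cells/well) or P12-Ichikawa (1000 cells/well) leukemia cells were adapted for at least four passages in each medium. They were seeded in 1536-well plates (5 μl) and pin-dosed with library compounds in DMSO over an 11-point threefold series, 47 μM to 0.79 nM. CellTiter-Glo One luminescence was read after 48 h at 37°C. Viability is the per-plate percentage relative to DMSO wells, with cell-free wells as background.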
# [1] = HPLM + 10% dialyzed FBS, 0.000781 µM
# [2] = HPLM + 10% dialyzed FBS, 0.00234 µM
# [3] = HPLM + 10% dialyzed FBS, 0.00702 µM
# [4] = HPLM + 10% dialyzed FBS, 0.0211 µM
# [5] = HPLM + 10% dialyzed FBS, 0.0632 µM
# [6] = HPLM + 10% dialyzed FBS, 0.19 µM
# [7] = HPLM + 10% dialyzed FBS, 0.569 µM
# [8] = HPLM + 10% dialyzed FBS, 1.71 µM
# [9] = HPLM + 10% dialyzed FBS, 5.12 µM
# [10] = HPLM + 10% dialyzed FBS, 15.4 µM
# [11] = HPLM + 10% dialyzed FBS, 46.1 µM
# [12] = RPMI 5 mM glucose + 10% FBS, 0.000781 µM
# [13] = RPMI 5 mM glucose + 10% FBS, 0.00234 µM
# [14] = RPMI 5 mM glucose + 10% FBS, 0.00702 µM
# [15] = RPMI 5 mM glucose + 10% FBS, 0.0211 µM
# [16] = RPMI 5 mM glucose + 10% FBS, 0.0632 µM
# [17] = RPMI 5 mM glucose + 10% FBS, 0.19 µM
# [18] = RPMI 5 mM glucose + 10% FBS, 0.569 µM
# [19] = RPMI 5 mM glucose + 10% FBS, 1.71 µM
# [20] = RPMI 5 mM glucose + 10% FBS, 5.12 µM
# [21] = RPMI 5 mM glucose + 10% FBS, 15.4 µM
# [22] = RPMI 5 mM glucose + 10% FBS, 46.1 µM
# [23] = RPMI 5 mM glucose + 10% dialyzed FBS, 0.000781 µM
# [24] = RPMI 5 mM glucose + 10% dialyzed FBS, 0.00234 µM
# [25] = RPMI 5 mM glucose + 10% dialyzed FBS, 0.00702 µM
# [26] = RPMI 5 mM glucose + 10% dialyzed FBS, 0.0211 µM
# [27] = RPMI 5 mM glucose + 10% dialyzed FBS, 0.0632 µM
# [28] = RPMI 5 mM glucose + 10% dialyzed FBS, 0.19 µM
# [29] = RPMI 5 mM glucose + 10% dialyzed FBS, 0.569 µM
# [30] = RPMI 5 mM glucose + 10% dialyzed FBS, 1.71 µM
# [31] = RPMI 5 mM glucose + 10% dialyzed FBS, 5.12 µM
# [32] = RPMI 5 mM glucose + 10% dialyzed FBS, 15.4 µM
# [33] = RPMI 5 mM glucose + 10% dialyzed FBS, 46.1 µM
Structure (SMILES),cell viability [1] [%],cell viability [2] [%],cell viability [3] [%],cell viability [4] [%],cell viability [5] [%],cell viability [6] [%],cell viability [7] [%],cell viability [8] [%],cell viability [9] [%],cell viability [10] [%],cell viability [11] [%],cell viability [12] [%],cell viability [13] [%],cell viability [14] [%],cell viability [15] [%],cell viability [16] [%],cell viability [17] [%],cell viability [18] [%],cell viability [19] [%],cell viability [20] [%],cell viability [21] [%],cell viability [22] [%],cell viability [23] [%],cell viability [24] [%],cell viability [25] [%],cell viability [26] [%],cell viability [27] [%],cell viability [28] [%],cell viability [29] [%],cell viability [30] [%],cell viability [31] [%],cell viability [32] [%],cell viability [33] [%]
CC1(C)[C@@H](O)CC[C@@]2(C)[C@H]1CC[C@]3(C)[C@@H]2C(=O)\C=C/4[C@@H]5C[C@](C)(CC[C@]5(C)CC[C@@]34C)C(O)=O,99.9,125,117,112,109,118,110,113,104,102,97.2,109,121,116,122,114,118,110,122,100,110,111,97.5,105,113,113,108,104,98.9,106,94.6,103,96.9
Cc1noc(N[S+](=O)([O-])c2ccc(N)cc2)c1C,99.4,106,104,112,115,109,111,114,109,102,117,85.2,102,97.6,91.2,99.8,105,98.1,94.1,102,96.8,100,92.4,90.5,99.5,89.7,106,106,108,99.3,101,94.1,98.9
CN1CCC(CNc2ccc3ncc(-c4cccc(OC(F)(F)F)c4)n3n2)CC1,108,110,97.3,109,105,103,108,102,97.4,92.8,5.65,100,101,89.4,102,100,102,99.8,94.7,89.1,79.7,4.48,92.7,92.9,92.2,95.4,94.7,92.4,101,92.3,85.9,84.3,4.77
COc1cccc(N(C)C(=S)Oc2ccc3c(c2)CCCC3)n1,97.6,97.3,103,106,111,108,112,107,97.6,107,101,96.6,103,99.1,103,104,92.2,107,104,96.9,95.6,88.1,94.9,86.6,104,96.9,99.7,94.2,101,92.1,96.6,94.8,81.1
O=C(NOCC1CC1)c1ccc(F)c(F)c1Nc1ccc(I)cc1Cl,92.8,98,104,110,114,106,101,94.8,84.3,82.2,79.3,96.6,102,105,103,110,98,97.1,88.7,74,60.9,70,92.9,106,98,112,109,114,110,112,91.8,71,82.6
C/C=C(\C)C(=O)N[C@@H](c1ccccc1)[C@@H](O)C(=O)O[C@H]1C[C@@]2(O)[C@@H](OC(=O)c3ccccc3)[C@@H]3[C@]4(OC(C)=O)CO[C@@H]4C[C@H](O)[C@@]3(C)C(=O)[C@H](OC(C)=O)C(=C1C)C2(C)C,45.3,23.3,25.7,15.9,22.2,19,21.4,20.3,19,19,14.2,46.4,20.9,25.7,13.8,15.1,17.2,16.8,16.6,13,13,10.6,49.5,27.8,32.8,23,23,23.4,30.4,28.5,24.6,24.8,21.1
COc1cc2c(cc1O)CCC1C2CC[C@@]2(C)C1CC[C@@H]2O (stereo not given in full),116,120,118,89.9,120,112,114,65.1,31.8,17.9,15.8,,,,,,,,,,,,120,125,115,114,126,120,115,96.3,47,27.8,26.2
